For orientation: melting point means the temperature, or range, at which the solid turns liquid.

Our source for the melting point values is patent US20090221600A1, “PYRIDO-PYRIDIMIDINE DERIVATIVES USEFUL AS ANTIINFLAMMATORY AGENTS” (priority 2005, published 2009).

Molecules are shown by their SMILES.

Molecule `Cc1ccccc1-c1cc2cnc(NC3CCN(Cc4ccccc4)CC3)nc2n(C2CCOCC2)c1=O` [Compound No. 9, 2-[(1-Benzyl-piperidin-4-yl)amino]-6-(2-methyl-phenyl)-8-(tetrahydro-2H-pyran-4-yl)pyrido[2,3-d]pyrimidin-7(8H)-one] showed a melting point of 201.8 to 203.2 °C.
